Measured values published in PubChem BioAssay (NCI).
Several values for one entry are separate records, joined by “and”; a condition that tells them apart may be missing. Identical values can stand only once.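 Protocol summary: plate cells (96-well), add compound at 5 concentrations, incubate 48 h, interpolate endpoints linearly. GI50 is the concentration that inhibits growth by half. Definition used: TGI = concentration required for complete inhibition of growth.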

Assays:
Experiment in all cases: inhibition of tumour cell growth, NCI panel, 48 h
[1] = test system: CCRF-CEM leukemia
[2] = test system: HCT-116 colon
[3] = test system: UACC-62 melanoma
[4] = test system: HT29 colon
[5] = test system: DU-145 prostate
[6] = test system: A549 NSCLC
[7] = test system: OVCAR-5 ovarian
[8] = test system: SW-620 colon
[9] = test system: OVCAR-8 ovarian
[10] = test system: SK-MEL-2 melanoma

Structure (SMILES) | GI50 [1] | TGI [1] [µM] | GI50 [2] | TGI [2] [µM] | GI50 [3] [µM] | TGI [3] | GI50 [4] [µM] | TGI [4] | GI50 [5] | TGI [5] | GI50 [6] | TGI [6] | GI50 [7] | TGI [7] | GI50 [8] | TGI [8] | GI50 [9] | TGI [9] | GI50 [10] | TGI [10]
CCOC(=O)c1c(C)nc2c(c1N)CC(=O)N2CCc1ccccc1 | 0.389 µM | 14.4 | 0.32 µM | 11.2 | 0.629 | 17.2 µM | 0.327 | 14.5 µM | 0.881 µM | 16 µM | 4.19 µM | 36.9 µM | 8.2 µM | 24.9 µM | 0.47 µM | 11.1 µM | 3.17 µM | 16.7 µM | 0.53 µM | 6.8 µM
CCCCNC(=O)c1cc(NCc2cc(O)ccc2O)ccc1O | 0.873 µM | 12.8 | 18.8 µM | 37.5 | 13.7 | 27.1 µM | 21.5 | 46.8 µM | 15.9 µM | 29.6 µM | 21.9 µM | 48.2 µM | 17.4 µM | 32 µM | 18.9 µM | 43.4 µM | 18.1 µM | 68.8 µM | 22.8 µM | 65 µM
Cc1ccc(C(SCC(N)C(=O)O)(c2ccccc2)c2ccccc2)cc1 (stereo not given) | 0.0832 µM | > 100 | 0.0384 µM | 13 | 0.0561 | > 59.4 µM | 0.365 | > 100 µM | 0.181 µM | 0.466 µM | 0.153 µM | > 100 µM | 2.41 µM | > 100 µM | 0.0437 µM | > 69.8 µM | 0.139 µM | > 100 µM | 2.75 µM | 98 µM
N#Cc1c(N)nc(N)nc1N[C@H](c1nc2c(F)ccc(Cl)c2c(=O)n1-c1cccnc1)C1CC1 | 7.35 µM | 95.1 | 11.6 µM | 27.3 | 1.6 | > 100 µM | 4.53 | 25.8 µM | 11 µM | > 100 µM | 6.22 µM | 21.2 µM | 2.72 µM | 45.7 µM | 11.1 µM | > 100 µM | 15.9 µM | 44.3 µM | 23.3 µM | > 100 µM
Cc1ccc(C2=C(c3ccc(C)cc3)C3(c4ccc(C)cc4)C4C(=O)c5ccccc5C(=O)C4C2(c2ccc(C)cc2)S3=O)cc1 (stereo not given) | > 100 µM | > 100 | > 100 µM | > 100 | > 100 | > 100 µM | > 100 | > 100 µM | > 100 µM | > 100 µM | > 100 µM | > 100 µM | > 100 µM | > 100 µM | > 100 µM | > 100 µM | > 100 µM | > 100 µM | > 100 µM | > 100 µM
CC(C)n1nc(-c2ccc3oc(N)nc3c2)c2c(N)ncnc21 | 0.0265 µM and 0.0467 µM | > 45.6 | 0.0387 µM and 0.0361 µM | 15 | < 0.01 | 0.0317 µM and 0.049 µM | 0.0272 | 10.8 µM and 5.32 µM | 0.0203 µM and 0.0208 µM | 11.9 µM and 6.63 µM | 0.0156 µM and 0.0191 µM | 2.88 µM and 1.03 µM | 0.0132 µM and 0.0161 µM | 1.4 µM and 2.08 µM | 0.037 µM and 0.0379 µM | 21.1 µM and 12.6 µM | 0.0246 µM and 0.0218 µM | 1.24 µM and 0.506 µM | 0.0194 µM and 0.0157 µM | 0.581 µM and 0.113 µM
CCOC(=O)c1oc2ccc([N+](=O)[O-])c3c2c1CCC3 |  | > 100 |  | > 100 |  | > 54.8 µM |  | > 100 µM |  | > 100 µM |  | > 100 µM |  | > 100 µM |  | > 100 µM |  | > 100 µM |  | > 100 µM
C/C(=N\N=C(\[Se])N(C)C)c1ccccn1 |  | 2.1 |  | 14.2 |  | 2.4 µM |  | 14.2 µM |  | 18 µM |  | 13.5 µM |  | 7.31 µM |  | 15.2 µM |  | 6.46 µM |  | 12.9 µM
Cc1cc2nc3cc(C)c(N)cc3[n+](-c3ccccc3)c2cc1N | 11.2 µM | > 100 | 3.64 µM | 41.4 | 6.19 | 30.7 µM | 7.3 | > 100 µM | 7.89 µM | > 100 µM | 14.6 µM | > 100 µM | 46.3 µM | > 100 µM | 5.62 µM | > 45.2 µM | 2.83 µM | > 100 µM | 6.74 µM | 47.1 µM
COc1cc(N2CCN(C(C)C)CC2)ccc1Nc1nc(Nc2cccc(F)c2C(=O)O)c2cc[nH]c2n1 | > 25 µM | > 25 | > 25 µM | > 25 | > 25 | > 25 µM | > 25 | > 25 µM | > 25 µM | > 25 µM | > 25 µM | > 25 µM | > 25 µM | > 25 µM | > 25 µM | > 25 µM | > 25 µM | > 25 µM | > 25 µM | > 25 µM
CN1CCN(Cc2ccc(NC(=O)c3cncc(C#Cc4cncc5nccnc45)c3)cc2C(F)(F)F)CC1 | 3.98 µM | 35 | 1.39 µM | 7.35 | 1.55 | 7.21 µM | 0.914 | 7.87 µM | 3.22 µM | 9.6 µM | 4.3 µM | 11.4 µM | 2.15 µM | 32.8 µM | 0.878 µM | 7.7 µM | 3.71 µM | 24.1 µM | 0.915 µM | 2.7 µM
COc1cc2ncnc(Nc3ccc4c(cnn4Cc4ccccc4)c3)c2cc1OC | > 18.1 µM | > 25 | > 21.3 µM | > 25 | > 25 | > 25 µM | 8.77 | > 25 µM | > 25 µM | > 25 µM | > 17.9 µM | > 25 µM | > 25 µM | > 25 µM | > 25 µM | > 25 µM | > 17.5 µM | > 25 µM | > 25 µM | > 25 µM
COc1ccc(/C=C2\CN(Cc3cn(CCNc4ccnc5cc(Cl)ccc45)nn3)C/C(=C\c3ccc(OC)c(OC)c3)C2=O)cc1OC | 2.54 µM | > 100 | 1.95 µM | 3.85 | 2.14 | 5.39 µM | 3.13 | 8.82 µM | 3.48 µM | 11 µM | 4.73 µM | 40.4 µM | 4.55 µM | 21.5 µM | 2.32 µM | 6.15 µM | 3.94 µM | > 100 µM | 3.88 µM | 26.6 µM
